Measurements taken from patent publication US20020137929A1, “1 - (3-heterocyclylphenyl) isothiourea, -isourea, -guanidine and -amidine herbicidal agents” (Intellectual Property Department, BASF Aktiengesellschaft, priority 1998, published 2002).

Tests used:
ABUTH (Velvetleaf) [1] = assay: Preemergence herbicidal evaluation; assay type: in vivo, Abutilon theophrasti; conditions: rated 4-5 weeks after treatment, rating scale 0-9
How it was run: (§1)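 Steps: mix seeds into potting soil; plant atop ~1 inch soil; spray compound in aqueous acetone (~0.0156-0.500 kg/ha equivalent); maintain in greenhouse with watering; rate visually 0-9 versus control at 4-5 weeks.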

ECHCG (Barnyardgrass) = assay: Postemergence herbicidal evaluation; assay type: in vivo, Echinochloa crus-galli; conditions: postemergence
How it was run: (§2)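 Young plants, roughly two weeks from seeding, receive the active ingredient as a sprayed dispersion (acetone/water 50/50, 0.5% TWEEN 20) at 40 psi. Doses span about 0.0156 to 0.500 kg/ha. A visual score from 0 to 9 compares treated with control plants four to five weeks on.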

[2] = test system: SAGPY (Arrowhead (Pygmaea)); assay: Preemergence weed control under flooded paddy conditions; assay type: in vivo, Sagittaria pygmaea; conditions: rated 3-4 weeks after treatment
How it was run: (§3)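 Greenhouse paddy assay. Acetone/water (50/50 v/v) solutions dosed into flood water, equivalent to about 0.0313 to 0.500 kg/ha active ingredient, over seeds planted 0.5 cm deep in silt loam. Score: 0-9 visual, based on stand, vigor, malformation, size and chlorosis, 3 to 4 weeks after treatment.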

CASOB (Sicklepod) = assay: Preemergence herbicidal evaluation; assay type: in vivo, Cassia obtusifolia; conditions: rated 4-5 weeks after treatment, rating scale 0-9
How it was run: as §1

MOOVA (Monochoria) = assay: Preemergence weed control under flooded paddy conditions; assay type: in vivo, Monochoria vaginalis; conditions: rated 3-4 weeks after treatment
How it was run: as §3

[3] = test system: TRZAWR (Wheat, Winter, cv Riband); assay: Postemergence herbicidal evaluation; assay type: in vivo, Triticum aestivum; conditions: postemergence
How it was run: as §2

AMBEL (Ragweed, Common) = assay: Postemergence herbicidal evaluation; assay type: in vivo, Ambrosia artemisifolia; conditions: postemergence
How it was run: as §2

ORYSAT (Rice, Tebonnet) = assay: Postemergence herbicidal evaluation; assay type: in vivo, Oryza sativa, (L.) Tebonnet; conditions: postemergence
How it was run: as §2

[4] = test system: GLXMAW (Soybean, Williams); assay: Postemergence herbicidal evaluation; assay type: in vivo, Glycine max, (L.) Merr. cv Williams; conditions: postemergence
How it was run: as §2

ABUTH (Velvetleaf) [5] = assay: Postemergence herbicidal evaluation; assay type: in vivo, Abutilon theophrasti; conditions: postemergence
How it was run: as §2

SETVI (Foxtail, Green) [6] = assay: Preemergence herbicidal evaluation; assay type: in vivo, Setaria viridis; conditions: rated 4-5 weeks after treatment, rating scale 0-9
How it was run: as §1

SETVI (Foxtail, Green) [7] = assay: Postemergence herbicidal evaluation; assay type: in vivo, Setaria viridis; conditions: postemergence
How it was run: as §2

Cc1cccc(CN2C(=O)CSC2=Nc2cc(-n3c(=O)cc(C(F)(F)F)n(C)c3=O)c(F)cc2Cl)c1 [Compound 130, 3-{4-Chloro-2-fluoro-5-{[3-(m-methylbenzyl)-4-oxo-2-thiazolidinylidene]amino}phenyl}-1-methyl-6-(trifluoromethyl)-2,4 (1H, 3H)-pyrimidinedione]
8.0: herbicidal rating GLXMAW ([4]; rate 0.0625 kg/ha)
4.0: herbicidal effect rating, SAGPY ([2]; 0.0313 kg/ha) | herbicidal effect rating, SAGPY ([2]; 0.0625 kg/ha) | herbicidal rating TRZAWR ([3]; rate 0.0625 kg/ha) | herbicidal rating SETVI (SETVI (Foxtail, Green) [7]; rate 0.0156 kg/ha)
9.0: Preemergence herbicidal rating ABUTH (ABUTH (Velvetleaf) [1]; rate 0.0313 kg/ha) | Preemergence herbicidal rating ABUTH (ABUTH (Velvetleaf) [1]; rate 0.0625 kg/ha) | Preemergence herbicidal rating ABUTH (ABUTH (Velvetleaf) [1]; rate 0.1250 kg/ha) | Preemergence herbicidal rating ABUTH (ABUTH (Velvetleaf) [1]; rate 0.2500 kg/ha) | herbicidal rating AMBEL (AMBEL (Ragweed, Common); rate 0.0156 kg/ha) | herbicidal rating AMBEL (AMBEL (Ragweed, Common); rate 0.0313 kg/ha) | herbicidal rating AMBEL (AMBEL (Ragweed, Common); rate 0.0625 kg/ha) | herbicidal rating ABUTH (ABUTH (Velvetleaf) [5]; rate 0.0156 kg/ha) | herbicidal rating ABUTH (ABUTH (Velvetleaf) [5]; rate 0.0313 kg/ha) | herbicidal rating ABUTH (ABUTH (Velvetleaf) [5]; rate 0.0625 kg/ha) | Preemergence herbicidal rating SETVI (SETVI (Foxtail, Green) [6]; rate 0.2500 kg/ha)
5.5: herbicidal rating GLXMAW ([4]; rate 0.0156 kg/ha)
6.0: herbicidal effect rating, MOOVA (MOOVA (Monochoria); 0.1250 kg/ha) | herbicidal effect rating, MOOVA (MOOVA (Monochoria); 0.2500 kg/ha) | Preemergence herbicidal rating SETVI (SETVI (Foxtail, Green) [6]; rate 0.0313 kg/ha) | herbicidal rating SETVI (SETVI (Foxtail, Green) [7]; rate 0.0313 kg/ha)
1.0: Preemergence herbicidal rating ABUTH (ABUTH (Velvetleaf) [1]; rate 0.0156 kg/ha) | Preemergence herbicidal rating CASOB (CASOB (Sicklepod); rate 0.0313 kg/ha)
7.0: herbicidal rating GLXMAW ([4]; rate 0.0313 kg/ha) | Preemergence herbicidal rating SETVI (SETVI (Foxtail, Green) [6]; rate 0.0625 kg/ha) | Preemergence herbicidal rating SETVI (SETVI (Foxtail, Green) [6]; rate 0.1250 kg/ha) | herbicidal rating SETVI (SETVI (Foxtail, Green) [7]; rate 0.0625 kg/ha)
3.0: herbicidal rating ECHCG (ECHCG (Barnyardgrass); rate 0.0625 kg/ha) | herbicidal effect rating, SAGPY ([2]; 0.2500 kg/ha) | Preemergence herbicidal rating CASOB (CASOB (Sicklepod); rate 0.2500 kg/ha) | herbicidal rating ORYSAT (ORYSAT (Rice, Tebonnet); rate 0.0156 kg/ha) | herbicidal rating ORYSAT (ORYSAT (Rice, Tebonnet); rate 0.0313 kg/ha)
0.0: herbicidal effect rating, SAGPY ([2]; 0.1250 kg/ha) | Preemergence herbicidal rating CASOB (CASOB (Sicklepod); rate 0.0156 kg/ha) | herbicidal effect rating, MOOVA (MOOVA (Monochoria); 0.0313 kg/ha) | herbicidal effect rating, MOOVA (MOOVA (Monochoria); 0.0625 kg/ha) | Preemergence herbicidal rating SETVI (SETVI (Foxtail, Green) [6]; rate 0.0156 kg/ha)
3.5: herbicidal rating TRZAWR ([3]; rate 0.0156 kg/ha) | herbicidal rating TRZAWR ([3]; rate 0.0313 kg/ha) | herbicidal rating ORYSAT (ORYSAT (Rice, Tebonnet); rate 0.0625 kg/ha)
2.0: herbicidal rating ECHCG (ECHCG (Barnyardgrass); rate 0.0156 kg/ha) | herbicidal rating ECHCG (ECHCG (Barnyardgrass); rate 0.0313 kg/ha) | Preemergence herbicidal rating CASOB (CASOB (Sicklepod); rate 0.0625 kg/ha)

COc1ccc(CN2C(=O)CSC2=Nc2cc(-n3c(=O)cc(C(F)(F)F)n(C)c3=O)c(F)cc2Cl)cc1OC [Compound 134, 3-{4-Chloro-5-{[3-(3,4-dimethoxybenzyl)-4-oxo-2-thiazolidinylidene]amino}-2-fluorophenyl}-1-methyl-6-(trifluoromethyl)-2,4(1H,3H)-pyrimidinedione]
7.0: Preemergence herbicidal rating ABUTH (ABUTH (Velvetleaf) [1]; rate 0.2500 kg/ha) | herbicidal rating AMBEL (AMBEL (Ragweed, Common); rate 0.0625 kg/ha) | herbicidal rating ABUTH (ABUTH (Velvetleaf) [5]; rate 0.0313 kg/ha)
5.0: herbicidal rating GLXMAW ([4]; rate 0.0625 kg/ha) | herbicidal rating ABUTH (ABUTH (Velvetleaf) [5]; rate 0.0156 kg/ha)
1.0: herbicidal rating ECHCG (ECHCG (Barnyardgrass); rate 0.0625 kg/ha) | Preemergence herbicidal rating CASOB (CASOB (Sicklepod); rate 0.2500 kg/ha) | herbicidal rating ORYSAT (ORYSAT (Rice, Tebonnet); rate 0.0156 kg/ha) | herbicidal rating SETVI (SETVI (Foxtail, Green) [7]; rate 0.0625 kg/ha)
0.0: Preemergence herbicidal rating ABUTH (ABUTH (Velvetleaf) [1]; rate 0.1250 kg/ha) | herbicidal rating ECHCG (ECHCG (Barnyardgrass); rate 0.0156 kg/ha) | herbicidal effect rating, SAGPY ([2]; 0.2500 kg/ha) | Preemergence herbicidal rating CASOB (CASOB (Sicklepod); rate 0.1250 kg/ha) | Preemergence herbicidal rating SETVI (SETVI (Foxtail, Green) [6]; rate 0.1250 kg/ha) | herbicidal rating SETVI (SETVI (Foxtail, Green) [7]; rate 0.0156 kg/ha) | herbicidal rating SETVI (SETVI (Foxtail, Green) [7]; rate 0.0313 kg/ha)
3.5: herbicidal rating TRZAWR ([3]; rate 0.0313 kg/ha) | herbicidal rating GLXMAW ([4]; rate 0.0156 kg/ha)
2.0: herbicidal rating ECHCG (ECHCG (Barnyardgrass); rate 0.0313 kg/ha) | herbicidal effect rating, MOOVA (MOOVA (Monochoria); 0.2500 kg/ha) | herbicidal rating ORYSAT (ORYSAT (Rice, Tebonnet); rate 0.0625 kg/ha) | Preemergence herbicidal rating SETVI (SETVI (Foxtail, Green) [6]; rate 0.2500 kg/ha)
2.5: herbicidal rating TRZAWR ([3]; rate 0.0156 kg/ha)
3.0: herbicidal rating AMBEL (AMBEL (Ragweed, Common); rate 0.0156 kg/ha)
9.0: herbicidal rating ABUTH (ABUTH (Velvetleaf) [5]; rate 0.0625 kg/ha)
1.5: herbicidal rating ORYSAT (ORYSAT (Rice, Tebonnet); rate 0.0313 kg/ha)
4.0: herbicidal rating TRZAWR ([3]; rate 0.0625 kg/ha) | herbicidal rating AMBEL (AMBEL (Ragweed, Common); rate 0.0313 kg/ha) | herbicidal rating GLXMAW ([4]; rate 0.0313 kg/ha)

Cn1c(C(F)(F)F)cc(=O)n(-c2cc(N=C3SCC(=O)N3Cc3ccc(S(N)(=O)=O)cc3)c(Cl)cc2F)c1=O [Compound 135, Alpha-{2-{{2-chloro-5-[3,6-dihydro-3-methyl-2,6-dioxo-4-(trifluoromethyl)-1(2H)-pyrimidinyl]-4-fluorophenyl}imino}-4-oxo-3-thiazolidinyl}-p-toluenesulfonamide]
0.0: Preemergence herbicidal rating ABUTH (ABUTH (Velvetleaf) [1]; rate 0.0156 kg/ha) | Preemergence herbicidal rating ABUTH (ABUTH (Velvetleaf) [1]; rate 0.0313 kg/ha) | herbicidal effect rating, SAGPY ([2]; 0.0313 kg/ha) | Preemergence herbicidal rating CASOB (CASOB (Sicklepod); rate 0.0156 kg/ha) | Preemergence herbicidal rating SETVI (SETVI (Foxtail, Green) [6]; rate 0.0156 kg/ha) | Preemergence herbicidal rating SETVI (SETVI (Foxtail, Green) [6]; rate 0.0313 kg/ha)
2.0: herbicidal rating ECHCG (ECHCG (Barnyardgrass); rate 0.0313 kg/ha) | herbicidal rating ECHCG (ECHCG (Barnyardgrass); rate 0.0625 kg/ha) | herbicidal rating ORYSAT (ORYSAT (Rice, Tebonnet); rate 0.0156 kg/ha) | herbicidal rating ORYSAT (ORYSAT (Rice, Tebonnet); rate 0.0313 kg/ha) | Preemergence herbicidal rating SETVI (SETVI (Foxtail, Green) [6]; rate 0.0625 kg/ha) | herbicidal rating SETVI (SETVI (Foxtail, Green) [7]; rate 0.0156 kg/ha)
1.0: herbicidal rating ECHCG (ECHCG (Barnyardgrass); rate 0.0156 kg/ha) | Preemergence herbicidal rating CASOB (CASOB (Sicklepod); rate 0.0313 kg/ha) | Preemergence herbicidal rating CASOB (CASOB (Sicklepod); rate 0.0625 kg/ha) | Preemergence herbicidal rating CASOB (CASOB (Sicklepod); rate 0.1250 kg/ha)
5.0: herbicidal effect rating, SAGPY ([2]; 0.1250 kg/ha) | Preemergence herbicidal rating CASOB (CASOB (Sicklepod); rate 0.2500 kg/ha) | herbicidal rating GLXMAW ([4]; rate 0.0156 kg/ha) | herbicidal rating GLXMAW ([4]; rate 0.0313 kg/ha) | herbicidal rating GLXMAW ([4]; rate 0.0625 kg/ha)
8.0: Preemergence herbicidal rating ABUTH (ABUTH (Velvetleaf) [1]; rate 0.2500 kg/ha) | herbicidal effect rating, MOOVA (MOOVA (Monochoria); 0.2500 kg/ha)
4.0: herbicidal rating ABUTH (ABUTH (Velvetleaf) [5]; rate 0.0156 kg/ha) | Preemergence herbicidal rating SETVI (SETVI (Foxtail, Green) [6]; rate 0.1250 kg/ha) | herbicidal rating SETVI (SETVI (Foxtail, Green) [7]; rate 0.0313 kg/ha)
2.5: herbicidal rating TRZAWR ([3]; rate 0.0156 kg/ha) | herbicidal rating TRZAWR ([3]; rate 0.0313 kg/ha) | herbicidal rating ORYSAT (ORYSAT (Rice, Tebonnet); rate 0.0625 kg/ha)
3.0: Preemergence herbicidal rating ABUTH (ABUTH (Velvetleaf) [1]; rate 0.0625 kg/ha) | herbicidal effect rating, SAGPY ([2]; 0.0625 kg/ha) | herbicidal rating TRZAWR ([3]; rate 0.0625 kg/ha)
6.0: Preemergence herbicidal rating ABUTH (ABUTH (Velvetleaf) [1]; rate 0.1250 kg/ha) | herbicidal effect rating, SAGPY ([2]; 0.2500 kg/ha) | herbicidal effect rating, MOOVA (MOOVA (Monochoria); 0.0313 kg/ha) | herbicidal rating SETVI (SETVI (Foxtail, Green) [7]; rate 0.0625 kg/ha)
9.0: herbicidal effect rating, MOOVA (MOOVA (Monochoria); 0.0625 kg/ha) | herbicidal effect rating, MOOVA (MOOVA (Monochoria); 0.1250 kg/ha) | herbicidal rating AMBEL (AMBEL (Ragweed, Common); rate 0.0156 kg/ha) | herbicidal rating AMBEL (AMBEL (Ragweed, Common); rate 0.0313 kg/ha) | herbicidal rating AMBEL (AMBEL (Ragweed, Common); rate 0.0625 kg/ha) | herbicidal rating ABUTH (ABUTH (Velvetleaf) [5]; rate 0.0313 kg/ha) | herbicidal rating ABUTH (ABUTH (Velvetleaf) [5]; rate 0.0625 kg/ha)
7.0: Preemergence herbicidal rating SETVI (SETVI (Foxtail, Green) [6]; rate 0.2500 kg/ha)
